Measured values from paper PMC9406419, “OATD-02 Validates the Benefits of Pharmacological Inhibition of Arginase 1 and 2 in Cancer” (Cancers, 2022).

Key:
[1] = molecular target: T1, recombinant human ARG1 (Homo sapiens, UniProt P05089); assay: Recombinant arginase inhibition assay (colorimetric urea detection), ARG1; type: biochemical; conditions: recombinant human ARG1, 10 mM L-arginine, 37 °C, 1 h, pH 7.4
T1 construct: made in house; host or cells: E. coli
T1 sequence (P05089 1-322): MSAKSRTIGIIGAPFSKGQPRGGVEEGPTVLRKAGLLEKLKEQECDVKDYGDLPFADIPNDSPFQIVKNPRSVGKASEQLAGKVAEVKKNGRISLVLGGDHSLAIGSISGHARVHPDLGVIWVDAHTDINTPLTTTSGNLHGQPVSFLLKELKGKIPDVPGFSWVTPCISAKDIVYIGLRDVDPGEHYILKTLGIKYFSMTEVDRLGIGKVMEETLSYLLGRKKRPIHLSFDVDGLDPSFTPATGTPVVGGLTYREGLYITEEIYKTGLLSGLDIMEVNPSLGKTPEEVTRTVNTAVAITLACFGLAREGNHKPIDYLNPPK
Procedure: The enzymatic reaction was carried out at 37 °C for 1 h in the assay buffer (100 mM sodium phosphate buffer, 130 mM NaCl, pH 7.4) with the addition of 1 mg/mL BSA in the presence of 200 µM MnCl2 (enzyme cofactor), 10 mM (for ARG1) or 20 mM (for ARG2) of L-arginine hydrochloride (enzyme substrate), and serial dilutions of the test compounds. The inhibition of the arginase activity was determined by colorimetric detection of produced urea, as previously described [29] with minor changes. Briefly, 150 µL of freshly prepared developing reagent (2 mM o-phthaldialdehyde (OPA), 2 mM N-(1-naphthyl)ethylenediamine dihydrochloride (NED), 50 mM boric acid, 1 M sulfuric acid, 0.03% Brij-35) was added to each well, incubated for 20 min at RT, then the absorbance at 515 nm was measured. Normalized values were fitted to a four-parameter equation using GraphPad Prism and IC50 values were determined.

[2] = system: CT26 tumours; assay: Syngeneic CT26 model, combination with epacadostat and anti-PD-L1 antibody; type: in vivo, mouse; conditions: suboptimal doses: OATD-02 50 mg/kg PO BID; epacadostat 30 mg/kg PO BID; anti-PD-L1 2.5 mg/kg IP days 8, 10, 12, 14, 16
Procedure: (§1) CT26 and K562 in vivo experiments were conducted at Molecure SA. All experimental procedures were approved by the 1st Local Ethics Committee in Warsaw (Poland). For the syngeneic CT26 model, 7–8-week old BALB/c females (n = 9–18 per group, BALB/cAnNCrl, Charles River Laboratories) were injected subcutaneously in the right flank with 5 × 10^5 CT26 cells. […] Anti-PD-L1 antibody (InVivoPlus anti-mouse PD-L1, clone 10F.9G2, BioXCell, lot 615416D1) was injected intraperitoneally at 2.5 mg/kg on days: 8, 10, 12, 14 and 16 post tumour cells inoculation. Control groups received vehicle (saline) or isotype antibody (InVivoPlus rat IgG2b, anti-KLH, BioXCell, lot 629816D1). For the xenograft K562 model, 7–8 week-old athymic nude mice (n = 8–11 per group, Crl:NU(NCr)-Foxn1^nu, Charles River Laboratories) or NK cell-deficient Fox Chase SCID Beige mice (n = 10–12 per group, CB17.Cg-Prkdc^scidLyst^bg-J/Crl, Charles River Laboratories) were injected subcutaneously in the right flank with 1 × 10^7 K562 cells. […] Tumour volume measured by a digital calliper (width × length × depth × π/6) was recorded three times per week. Animals were euthanized when tumours were necrotized or volume exceeded 2000 mm^3. Renca in vivo efficacy study was performed at Crown Biosciences Inc. (Taicang, China). […] Tumour volumes (length × width^2 × 0.5) were measured twice per week. […]

[3] = system: Renca tumours; assay: Syngeneic Renca renal adenocarcinoma model with plasma L-arginine and tumour flow cytometry; type: in vivo, mouse
Procedure: CT26 and K562 in vivo experiments were conducted at Molecure SA. All experimental procedures were approved by the 1st Local Ethics Committee in Warsaw (Poland). For the syngeneic CT26 model, 7–8-week old BALB/c females (n = 9–18 per group, BALB/cAnNCrl, Charles River Laboratories) were injected subcutaneously in the right flank with 5 × 10^5 CT26 cells. […] Anti-PD-L1 antibody (InVivoPlus anti-mouse PD-L1, clone 10F.9G2, BioXCell, lot 615416D1) was injected intraperitoneally at 2.5 mg/kg on days: 8, 10, 12, 14 and 16 post tumour cells inoculation. Control groups received vehicle (saline) or isotype antibody (InVivoPlus rat IgG2b, anti-KLH, BioXCell, lot 629816D1). For the xenograft K562 model, 7–8 week-old athymic nude mice (n = 8–11 per group, Crl:NU(NCr)-Foxn1^nu, Charles River Laboratories) or NK cell-deficient Fox Chase SCID Beige mice (n = 10–12 per group, CB17.Cg-Prkdc^scidLyst^bg-J/Crl, Charles River Laboratories) were injected subcutaneously in the right flank with 1 × 10^7 K562 cells. […] Tumour volume measured by a digital calliper (width × length × depth × π/6) was recorded three times per week. Animals were euthanized when tumours were necrotized or volume exceeded 2000 mm^3. Renca in vivo efficacy study was performed at Crown Biosciences Inc. (Taicang, China). All experimental procedures on animals were approved by the Institutional Animal Care and Use Committee (IACUC) and conducted in accordance with the regulations of the Association for Assessment and Accreditation of Laboratory Animal Care (AAALAC). For the syngeneic Renca model, 6–7 week-old BALB/c females (n = 12 per group, Shanghai Lingchang Biotechnology, Shanghai, China) were injected subcutaneously in the right flank with 1 × 10^6 Renca cells. Tumour volumes (length × width^2 × 0.5) were measured twice per week. OATD-02 was dosed twice per day at 75 mg/kg by oral gavage. A dosing holiday was given to individuals with bodyweight loss exceeding 15% of the initial body weight and the treatment was resumed when the bodyweight loss recovered to less than 10%. Due to the cachexic nature of the Renca model, all animals were supplemented with DietGel to help maintain their body weight.
Dissected tumours were dissociated to obtain single-cell suspensions for antibody staining and immune cell assessment. Prior to the antibody staining, dead cells were labelled with the Fixable Viability Due eFluor™ 780 (eBiosciences, San Diego, CA, USA). The following anti-mouse antibodies were used for flow cytometry: anti-CD45-FITC (clone 30-F11, Biolegend, San Diego, CA, USA), anti-CD3-BUV395 (clone 145-2C11, BD), anti-CD4-BV421 (clone GK1.5, Biolegend), anti-CD8-PE-eFluor610 (clone 53-6.7, eBiosciences), anti-Foxp3-PE (clone FJK-16S, eBiosciences), anti-CD11b-PE-Cy7 (clone M1/70, Biolegend), anti-F4/80-BV510 (clone BM8, Biolegend), and anti-Gr1-APC (clone RB6-8C5, Biolegend).
The concentrations of OATD-02, the reference ARGi or L-arginine were determined in plasma samples or tumour homogenates using liquid chromatography coupled with tandem mass spectrometry (LC-MS/MS). Sample preparation was based on protein precipitation using acetonitrile. The resulting supernatants were analysed using hydrophilic interaction liquid chromatography (HILIC) with subsequent MS detection based on optimised MRM transitions. Matrix-matched calibration and quality control samples were prepared for quantification of OATD-02 and the reference ARGi. Due to the endogenous character of L-arginine, a surrogate matrix was used for its detection.
All statistical analyses were performed using GraphPad Prism (ver. 9, GraphPad Software, Inc., San Diego, CA, USA). Data sets with normal distribution were described as means with SEM (standard error of the mean). Otherwise, the median value was shown and the U Mann–Whitney or the Kruskal–Wallis tests were applied for intergroup comparisons. Differences at p-value less than 0.05 were considered statistically significant. […]

[4] = system: K562 tumours; assay: K562 xenograft model in T and NK cell-deficient Fox Chase SCID Beige mice; type: in vivo, mouse; conditions: 50 mg/kg PO BID from day 7, day 19
Procedure: as §1

[5] = Tolerability in animal models; type: in vivo

## CN(C)C[C@@H]1CC[C@@H](CCB(O)O)C[C@]1(N)C(=O)O [OATD-02]
[1]
  IC50: 17 nM
[2]
  TGI, CT26 tumor growth inhibition - day 24: 33%
[3]; 75 mg/kg PO BID from day 1, day 22 post-inoculation, not statistically significant
  TGI, syngeneic Renca model: 31%
[3]; Renca tumours, flow cytometry, Foxp3+ within CD4+ T cells, p = 0.0196
  levels of Tregs in the tumour microenvironment: decreased levels
[3]; Renca tumours, flow cytometry, p = 0.0173
  levels of MDSCs in the tumour microenvironment: decreased levels
[3]; Renca tumours, flow cytometry, p = 0.0281
  CD8+/Treg cell ratio: beneficial increase
[3]; Renca tumours, flow cytometry, p = 0.0284
  levels of neutrophils in the tumour microenvironment: decreased levels
[3]; Renca-bearing mice, 75 mg/kg PO BID, 16 h upon last dose
  fold increase in plasma L-arginine: 6.6 fold
[4]
  final TGI, K562 tumor volumes, Fox Chase SCID Beige mice: 47%
[5]
  safety and tolerability: safe and well tolerated
